Read-outs that look alike come from different tables or passages of the source.
What was measured:
[1] = biological target: T1, endogenous BRD4 in HEK293 cells (Homo sapiens, UniProt O60885); assay: Endogenous BRD4 degradation, Western blot; format: cell-based; conditions: 18 h, read-out: BRD4 long isoform Dmax
T1 construct: endogenous in cells; host or cells: HEK293

[2] = biological target: T2, BRD4 (HEK293 HiBiT-BRD4 Cln3 cells) (Homo sapiens, UniProt O60885); format: cell-based; conditions: 5 h treatment, PBS washing, 24 h recovery with excess VH032 (50 μM) vs standard treatment 29 h; from AUC of residual BRD4 long isoform
T2 construct: GSK; host or cells: HEK293 HiBiT-BRD4 Cln3
Protocol: To further investigate the potential advantage of a covalent VHL ligand, we performed a head-to-head comparison of BRD-SF2 and MZ-1 in a washout experiment.
BRD4 and loading control Tubulin levels were visualized by Western blotting. […] BRD4 and loading control Tubulin levels were visualized by Western blotting.
with BRD-SF2 and MZ1, followed by 3 cycles of PBS wash, where media was aspirated, and
PBS used to gently wash the cells before allowing 24 h recovery incubation in DMEM media
The control plate was run as
described above, but no washout was applied making the total incubation time 29 h (5 h + 24
h). The assay was performed and analysed as described above.

BRD4-HiBiT HEK293T cells = conditions: 18 h, 70-0.01 μM
[3] = biological target: T2, BRD4 (HEK293 HiBiT-BRD4 Cln3 cells); assay: BRD4 HiBiT degradation assay; format: cell-based
Protocol: Figure 3 (A) Structure of BRD-SF2. […] BRD4 and loading control GAPDH levels were visualized by Western blotting. […] (D) HEK293 HiBiT-BRD4 Cln3 cells were treated with epoxomicin (1 μM) for 3 h, followed by the respective PROTAC or VHL-SF2 dose-dependently (75–0.01 μM) for 18 h. […] (E) HEK293 HiBiT-BRD4 Cln3 cells were treated with MLN4924 (1 μM) for 3 h, followed by the respective PROTAC or VHL-SF2 dose-dependently (75–0.01 μM) for 18 h. […] (F) Structure of AR-VHL-SF2 and AR2-VHL-SF2. […] The data the show mean ± SEM (n = 3).
Cellular BRD4/AR HiBiT assay
The HiBiT tagged cells were seeded at 10,000 cells per well in a 384-well plate (Thermo Scientific, 164610) at 25 µL per well in DMEM media containing 10% FBS and incubated overnight. Compounds were dispensed using D300e Digital Dispenser (HP) and normalized to 0.1% DMSO. Cells were pre-treated with Epoxomicin or MLN4924 for 3 h before treatment or directly with the PROTAC degraders for 18 or 24 h. Nano -Glo HiBiT lytic detection assay was performed as described in the manufacturer protocol (Promega). 25 µL of premixed detection reagent was added to each well of the 384 well assay plate and incubated for 15 min on an orbital shaker (at 600 RPM), and luminescence was read using a PHERAstar FS plate reader (BMG Labtech). Corresponding background RLU values were subtracted from DMSO control values and the percentage of protein (%) of were then calculated against […]
DMSO-treated controls. […]

VCB protein = biological target: T3, VCB protein (Homo sapiens, UniProt P40337); assay: Gel-based labelling of VHL (Neutravidin HRP blot); format: binding; conditions: 2 h at room temperature, 1-100 µM probe
T3 construct: human VHL (UniPort entry P40337, residues 1 -213); 6xHis followed by TEV site (N, cleaved yes); made in house; host or cells: E. coli One Shot BL21(DE3)
Protocol: (§1) To assess the ability of VHL-SF1 to covalently modify VHL, we initially developed a streptavidin shift assay in which we exposed recombinant human VCB, a stable complex of VHL protein with elongin C and elongin B, to VHL-SF1-Biotin. VHL biotinylation could then be directly quantified by the apparent shift in molecular weight observed when the sample was mixed with streptavidin and analyzed by an anti-VHL Western blot (Figure S2).[20] Through this assay, we concluded that 10 μM VHL-SF1-Biotin modified 32% VHL following 2 h of incubation at room temperature, which was further confirmed to be concentration-dependent with respect to the probe (Figure S3).
Figure S3. (A) Gel-based VHL labelling of VHL-SF1-Biotin, and (B) VHL-SF2-Biotin. […]
Figure S4. Dose-response of VHL-SF1 following a 2 h pre-incubation in the presence of VCB and FAM-conjugated HIF1α-derived peptide, assessed by fluorescence polarization. […]
VCB (11.1 mg/ mL) was diluted with PBS pH 7.4 (2 µg/ mL). […] 10 µL of each sample was loaded onto the gel and the bands were quantified […]
HEK293T cells were plated into two 6 well plates (in 1 mL media 10% FBS low glucose media) at a cell density of 1.0 x 10^6 cells/well 24 h before treatment. […] Proteins were separated by SDS -PAGE and further analyzed by immunoblotting. […]

[4] = biological target: T4, recombinant human VCB (VHL protein with elongin C and elongin B) (Homo sapiens, UniProt P40337); assay: Gel-based streptavidin shift assay (anti-VHL Western blot); format: binding; conditions: 10 μM probe, 2 h incubation at room temperature
T4 construct: human VHL (UniPort entry P40337, residues 1 -213); 6xHis followed by TEV site (N, cleaved yes); made in house; host or cells: E. coli One Shot BL21(DE3)
Protocol: as §1
Figure S2. (A) Structure of VHL-SF-1-Biotin. (B) Structure of VHL-SF-2-Biotin. (C - E) Gel-based streptavidin shift assay of VHL-SF1-Biotin, and VHL-SF2-Biotin. VCB protein was pre-treated with DMSO, VHL-SF1-Biotin (10 μM) or VHL-SF2-Biotin (10 μM) for 2 h at room temperature prior to addition of streptavidin (10 μM, 10 min) at room temperature, after which protein was resolved on SDS-PAGE and visualised by VHL western blotting. (F) Quantification of VHL levels from western blot.
Docking analysis with Molecular Operating Environment (MOE)
Molecular modelling studies were conducted using the software Molecular Operating Environment 2019.01. […]

Compound	Dmax [1] [%]	relative decrease in degradation activity after washout [2] [%]	cytotoxicity (CellTiter-Glo) (BRD4-HiBiT HEK293T cells)	Dmax ([3]; HEK293, read-out: Dmax (BRD4 degradation)) [%]	BRD4 depletion in presence of NEDDylation inhibitor MLN4924 ([3]; MLN4924 1 μM 3 h pretreatment, then compound 18 h)	BRD4 depletion in presence of proteasome inhibitor epoxomicin ([3]; epoxomicin 1 μM 3 h pretreatment, then compound 18 h)	DC50 ([3]; read-out: BRD4 DC50) [µM]	DC50 ([3]; read-out: DC50 (BRD4 degradation), 18 h incubation) [µM]	VHL labelling with respect to probe concentration (VCB protein)	VHL modified (VHL biotinylation, streptavidin shift) [4] [%]
COCC(COC)n1c(-c2cc(C)c(=O)n(C)c2)nc2cc(C3CCN(C(=O)COCCOCCOCCNC(=O)C[C@H](NC(=O)[C@@H]4C[C@@H](S(=O)(=O)F)CN4C(=O)[C@@H](c4cc(C)no4)C(C)C)c4ccc(-c5scnc5C)cc4)CC3)ccc21 [BRD-SF2, (3R,5S)-5-(((S)-1-(4-(1-(1,3-Dimethoxypropan-2-yl)-2-(1,5-dimethyl-6-oxo-1,6-dihydropyridin-3-yl)-1H-benzo[d]imidazole-5-yl)piperidin-1-yl)-15-(4-(4-methylthiazol-5-yl)phenyl)-1,13-dioxo-3,6,9-trioxa-12-azapentadecan-15-yl)carbamoyl)-1-((R)-3-methyl-2-(3-methylisoxazol-5-yl)butanoyl)pyrrolidine-3-sulfonyl fluoride]	50	27	no evidence of cytotoxicity	60	not depleted	not depleted	17	17.2	–	–
(3R,5S)-1-((S)-2-(tert-Butyl)-4,16-dioxo-20-((3aS,4R,6aR)-2-oxohexahydro-1H-thieno[3,4-d]imidazole-4-yl)-6,9,12-trioxa-3,15-diazaicosanoyl)-5-((4-(4-methylthiazol-5-yl)benzyl)carbamoyl-)pyrrolidine-3-sulfonyl fluoride [VHL-SF1-Biotin]	–	–	–	–	–	–	–	–	concentration-dependent	32
